Results as given in patent publication EP2307018B1, “OXYMATRINE COMPOSITIONS AND USE THEREOF FOR TREATING AND PREVENTING CHRONIC INFECTIOUS DISEASES” (Chia, John K.S., priority 2008, dated 2010).

Experiments:
enterovirus [1] = experiment: case report Example 4, treatment of chronic fatigue; format: in vivo, human
Protocol: A person with a known history of frequent respiratory infections and vasovagal syncope developed respiratory infection, which was followed by bedridden fatigue. Enteroviral protein was detected in the stomach biopsy consistent with chronic enterovirus infection. […] After vigorous exercise, they would still have relapses of bedridden fatigue for one day but continued to work 10-12 hours per day for the next 12 months, walking two miles per day. Laboratory tests were normal while on therapy.

[2] = test system: varicella-zoster virus (VZV); experiment: case report Example 9, chronic recurrent varicella-zoster virus infection (shingles); format: in vivo, human; conditions: 200 mg bid
Protocol: A person developed recurrent shingles after multiple episodes of sinus infections and sinus surgeries. They also had chronic indigestion and nausea. Fatigue became so severe that they were bedridden for several years.
Coxsackievirus B4 antibody was 1:320. […] The patient was started on oxymatrine 200 mg bid.

[3] = test system: Coxsackie B virus (CBV) 3, CVB4 and echovirus 9; experiment: case report Example 2, treatment of chronic fatigue; format: in vivo, human
Protocol: A person with episodes of diarrhea while traveling to Tonga developed severe respiratory infection soon thereafter. The symptoms consisted of fevers to 105°F, night sweats, diffuse myalgia, tachycardia, fatigue, sinus congestion and cough, and unresponsiveness to antibiotics. The patient developed profound fatigue thereafter and went on total disability three months after the onset of symptoms. Initial Coxsackie B virus (CBV) 3, CVB4 and echovirus 9 antibody titers were 1:320, 1:160, 1:80 (normal <1:10), respectively.
The patient could not work for the next 18 months. They were started on oxymatrine at 300 mg twice a day (bid). After taking oxymatrine for two months, they were able to take short walks, but still exhausted after one hour of activity requiring five hour naps. At the end of three months of therapy, they started having fevers of 104-105°F for several days with marked decrease in diffuse myalgia. […] CVB3, CVB4 and echovirus antibody three months after therapy were 1:160, 1:160 and 1:20, respectively.

enterovirus [4] = experiment: case report Example 12, treating diarrhea; format: in vivo, human
Text: A person developed severe watery diarrhea for two months. Stool evaluation was unremarkable. […] They continued to do well for six months on the medication.

enterovirus [5] = experiment: case report Example 3, treatment of chronic fatigue; format: in vivo, human
Protocol: A person who had recurrent episodes of debilitating fatigue became totally incapacitated after approximately 17 years. The patient was treated with a combination of alpha and gamma interferon for six weeks with acceptable results. They went into remission but relapsed nine months later after developing a minor upper respiratory infection. They improved minimally after several months of bed rest, but was barely able to work six hours per day. They had brain fog, myalgia (7/10 pain) and was barely able to walk even 1-2 blocks.
Three days after taking oxymatrine at a dose of 300 mg bid, the myalgia intensified (10/10 pain), especially one hour after taking the pills. One week after starting oxymatrine, routine laboratory tests including CBC, chemistry panel and creatine phosphokinase (CPK) were normal. They continued having significant fatigue and myalgia for the next three weeks, but the symptoms resolved one week after stopping the medication. Mild increase in myalgia recurred three days after resuming oxymatrine, but resolved after continuing the medication for the next two weeks. The patient felt well at the end of three months with minimal discomfort in a few muscle groups.
Severe myalgia recurred after resuming vigorous exercise for three weeks while taking oxymatrine. They had to stop exercise for the two months allowing cessation of myalgia. After taking oxymatrine for six months, the patient felt well. Over the next six months after stopping the medication, the patient continuously performed heavy physical activities without significant difficulty. After developing another episode of upper respiratory symptoms, their symptoms relapsed. They have resumed oxymatrine but experienced increasing myalgia as the fatigue improved.

hepatitis B = conditions: oral, after one year of treatment; comparable to interferon-α injection; cited from earlier work
cytokine gene expression = cytokine gene expression study on blood samples before and after oxymatrine (FIG. 4); format: in vivo, human; conditions: blood samples before and after taking oxymatrine for 15 months, one patient
Text: A cytokine gene expression study on blood samples before (Sample 2) and after (Sample 3) taking oxymatrine for 15 months in one patient, is graphically illustrated in FIG. 4. […] FIG. 5 illustrates that neutralizing antibodies CBV 3 and CBV 4 were obtained serially over a three year period (performed by ARUP laboratory, Salt Lake City, UT).

enterovirus protein = experiment: immunoperoxidase staining of stomach biopsy before and after oxymatrine; format: in vivo, human; conditions: one patient (case 5), after taking oxymatrine for 6 months, correlated with symptomatic improvement
Text: FIG. 2 illustrates immunoperoxidase staining for enterovirus protein in a stomach biopsy before oxymatrine therapy for one patient. […] The decrease in viral protein correlated with significant symptomatic improvement.

## O=C1CCC[C@@H]2[C@H]3CCC[N+]4([O-])CCC[C@@H](CN12)[C@@H]34 (stereo partly shown) [oxymatrine]
Enterovirus [1]; after taking the medication for six weeks, previously bedridden fatigue
  clinical outcome: returned to full-time work
Enterovirus [1]; in vivo
  tolerability: tolerated well without any adverse reactions
Enterovirus [1]; while on therapy
  laboratory tests: normal
[2]
  outbreaks of shingles: less often and not as severe
[2]; three months, previously bedridden
  clinical outcome: went back to full-time work
[3]; 300 mg bid for three months, three months after finishing the medication, previously on total disability
  clinical outcome: went back to full-time work
[3]; at the end of three months of therapy, for several days, with marked decrease in diffuse myalgia
  fevers: 104-105 °F
[3]; during therapy, calcium resolved after stopping hydrochlorothiazide
  laboratory studies including CBC and complete chemistry panel: normal except mildly elevated calcium levels
[3]; in vivo
  relapse after therapy: had not relapsed for at least one year after therapy
Enterovirus [4]; after starting oxymatrine
  diarrhea: resolved within one week
Enterovirus [4]; resolved after increasing the dosage
  effect of decrease of medication to half the dose: relapse of the symptoms
Enterovirus [5]; after taking oxymatrine for six months
  clinical outcome: felt well
Enterovirus [5]; at the end of three months, minimal discomfort in a few muscle groups
  clinical outcome: felt well
Enterovirus [5]; one week after starting oxymatrine
  routine laboratory tests including CBC, chemistry panel and creatine phosphokinase (CPK): normal
Enterovirus [5]; three days after taking 300 mg bid, 7/10 before
  myalgia (pain): 10/10
Hepatitis B
  overall cure rate: about 40%
Cytokine gene expression
  Th1 cytokines gene expression (interleukin-2, interleukin-12, interleukin-15): significant increase
  regulatory Th2 cytokine gene expression (interleukin-10): significant decrease
Enterovirus protein
  viral protein by staining with enterovirus-specific monoclonal antibody (5 D8/1): significant reduction
